According to ChEMBL document CHEMBL1201862, “PubChem BioAssay data set” (2004):
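Dose response: 5 concentrations. Exposure: 48 h. Format: 96-well plates. Endpoint: linear interpolation; highest concentration if not reached. GI50 is the concentration that inhibits growth by half.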 The source made the active and inactive calls. Rule as the data show it: active = GI50 up to about 1.1 µM and inactive = higher.

Key:
Experiment in all cases: NCI anticancer screen, dose series, 48 h
[1] = tested on: RXF 393
[2] = tested on: OVCAR-5
[3] = tested on: CAKI-1
[4] = tested on: SNB-75
[5] = tested on: RXF 631
[6] = tested on: Malme-3M
[7] = tested on: A549
[8] = tested on: K562
[9] = tested on: SK-MEL-28
[10] = tested on: SF-295
[11] = tested on: HCT-116
[12] = tested on: NCI-H522
[13] = tested on: UACC-257
[14] = tested on: OVCAR-3
[15] = tested on: HOP-18
[16] = tested on: DMS-273
[17] = tested on: NCI-H460
[18] = tested on: IGROV-1
[19] = tested on: OVCAR-8
[20] = tested on: SR
[21] = tested on: ACHN
[22] = tested on: HOP-62
[23] = tested on: HT-29
[24] = tested on: SW-620
[25] = tested on: SK-OV-3
[26] = tested on: DMS-114
[27] = tested on: M19-MEL
[28] = tested on: NCI-H23
[29] = tested on: HCT-15
[30] = tested on: LOX IMVI
[31] = tested on: SK-MEL-2
[32] = tested on: HOP-92
[33] = tested on: UACC-62
[34] = tested on: UO-31
[35] = tested on: EKVX
[36] = tested on: A498
[37] = tested on: SF-268
[38] = tested on: MOLT-4
[39] = tested on: HCC 2998
[40] = tested on: COLO 205
[41] = tested on: SNB-19
[42] = tested on: SN12C
[43] = tested on: NCI-H226
[44] = tested on: SK-MEL-5
[45] = tested on: LXFL 529
[46] = tested on: HL-60
[47] = tested on: OVCAR-4
[48] = tested on: KM12
[49] = tested on: 786-0
[50] = tested on: TK-10
[51] = tested on: CCRF-CEM
[52] = tested on: U-251
[53] = tested on: RPMI-8226
[54] = tested on: DLD-1
[55] = tested on: M14
[56] = tested on: KM-20L2
[57] = tested on: SNB-78
[58] = tested on: XF498

Measured: GI50

CCCCCCCCCCCCCCCCOCC(CN(C)CCN(C)C)OCCCCCCCCCCCCCCCC (centres undefined)
inactive: [1] > 100 µM | [2] > 100 µM | [3] > 100 µM | [4] > 100 µM | [5] > 100 µM | [6] > 100 µM | [7] > 100 µM | [8] > 100 µM | [9] > 100 µM | [10] > 100 µM | [11] > 100 µM | [12] > 100 µM | [13] > 100 µM | [14] > 100 µM | [15] > 100 µM | [16] > 100 µM | [17] > 100 µM | [18] > 100 µM | [19] > 100 µM | [20] > 100 µM | [21] > 100 µM | [22] > 100 µM | [23] > 100 µM | [24] > 100 µM | [25] > 100 µM | [26] > 100 µM | [27] > 100 µM | [28] > 100 µM | [30] > 100 µM | [31] > 100 µM | [32] > 100 µM | [33] > 100 µM | [34] > 100 µM | [35] > 100 µM | [36] > 100 µM | [37] > 100 µM | [38] > 100 µM | [39] > 100 µM | [40] > 100 µM | [41] > 100 µM | [42] > 100 µM | [43] > 100 µM | [44] > 100 µM | [45] > 100 µM | [46] > 100 µM | [47] > 100 µM | [48] > 100 µM | [49] > 100 µM | [50] > 100 µM | [51] > 100 µM | [52] > 100 µM | [53] > 100 µM | [54] > 100 µM | [55] > 100 µM | [56] > 100 µM | [57] > 100 µM
> 100 µM: [29]

CC(=O)N(CCN)CCN
> 100 µM: [29]
inactive: [1] > 10 µM | [3] > 10 µM | [4] > 100 µM | [5] > 10 µM | [7] > 10 µM | [8] > 10 µM | [9] > 10 µM | [10] > 10 µM | [11] > 10 µM | [12] > 10 µM | [13] > 10 µM | [14] > 10 µM | [16] > 10 µM | [17] > 10 µM | [19] > 10 µM | [20] > 10 µM | [21] > 100 µM | [22] > 10 µM | [24] > 10 µM | [25] > 100 µM | [26] > 10 µM | [27] > 10 µM | [28] > 10 µM | [30] > 10 µM | [31] > 100 µM | [32] > 10 µM | [33] > 100 µM | [34] > 10 µM | [35] > 100 µM | [36] > 10 µM | [37] > 100 µM | [38] > 10 µM | [58] > 100 µM | [39] > 10 µM | [40] > 10 µM | [41] > 10 µM | [42] > 10 µM | [44] > 100 µM | [45] > 10 µM | [46] > 10 µM | [47] > 10 µM | [48] > 10 µM | [49] > 10 µM | [50] > 10 µM | [51] > 10 µM | [52] > 10 µM | [53] > 10 µM | [54] > 100 µM | [55] > 10 µM | [56] > 10 µM | [57] > 10 µM
